The values that follow come from ChEMBL document CHEMBL1201862, “PubChem BioAssay data set” (2004).

SMILES strings stand for the structures.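 1) Cells in 96-well plates. 2) Compound, 48 h, 5 concentrations. 3) Linear interpolation between surrounding doses. 4) Unreached endpoint = highest concentration. GI50 is the concentration that inhibits growth by half.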 Activity calls are given as the source filed them. Cut-off read from the data, not from the text of the source: active = GI50 up to about 1.1 µM and inactive = higher.

Some test systems named below: Malme-3M; SF-268; SF-295; NCI-H23; UACC-62; DMS-114; UACC-257; HCC 2998; SF-539; HOP-62; HCT-116; HL-60; OVCAR-4; NCI-H460; SK-MEL-2; KM12; ACHN; RPMI-8226.
Holding throughout (assay): inhibition of tumour cell growth, NCI panel, 48 h

Take `COc1ccc2c(c1)OCCc1cn[nH]c1-2`: the GI50 in the test with Malme-3M is 38.9 µM (inactive); with SF-268, 59.4 µM (inactive); with SF-295, 54.2 µM (inactive); with NCI-H23, 38.3 µM (inactive); in the test with UACC-62 it was 22.8 µM (inactive); with DMS-114, 27.3 µM (inactive). Also, the GI50 in the test on UACC-257 was 32.7 µM (inactive); in the test on HCC 2998, 83.4 µM (inactive); in the test with SF-539, 32.7 µM (inactive); in the test with HOP-62, 56.6 µM (inactive); with HCT-116 it was 42.4 µM (inactive); in the test with HL-60, 13.3 µM (inactive). The GI50 is 48.6 µM (inactive) in the test on OVCAR-4, 31.6 µM (inactive) in the test on NCI-H460, 29.4 µM (inactive) in the test with SK-MEL-2 and 38.9 µM (inactive) with KM12.

Turning to `O=C(CSc1nnc(Cc2ccccc2)o1)Nc1cccc([N+](=O)[O-])c1`, the GI50 with Malme-3M, with SF-268, in the test on SF-295, with NCI-H23, in the test with UACC-62 and in the test on DMS-114 was > 100 µM (inactive) in each case. For the same compound, the GI50 with UACC-257, in the test on HCC 2998, in the test on SF-539, in the test with ACHN, in the test on HOP-62 and in the test on HCT-116 was > 100 µM (inactive) each time. For the same compound, the GI50 in the test on HL-60, in the test on OVCAR-4, with NCI-H460, in the test on RPMI-8226, in the test on SK-MEL-2 and in the test with KM12 was > 100 µM (inactive) each time.

For `COc1cc(NC(C)=O)c2[nH]c3c(C)cc(NC(C)=O)c(C)c3c2c1`, the GI50 in the test with SF-268, in the test on SF-295, in the test with NCI-H23, in the test with DMS-114, with HCC 2998 and in the test on SF-539 was > 100 µM (inactive) in each case. In addition, the GI50 in the test with ACHN, with HCT-116, in the test with HL-60, with OVCAR-4, in the test with NCI-H460 and with RPMI-8226 was > 100 µM (inactive) each time. Also, the GI50 with SK-MEL-2 and with KM12 was > 100 µM (inactive) each time.

As for `C/C(CC(=O)Nc1ccc(Cl)cc1)=N\NC(=O)C[n+]1ccccc1`, the GI50 in the test with Malme-3M, in the test with SF-268, in the test with SF-295, in the test on NCI-H23, in the test with UACC-62 and in the test with DMS-114 was > 100 µM (inactive) each time. Besides, the GI50 with UACC-257, with HCC 2998, in the test on SF-539, in the test on ACHN, with HOP-62 and in the test with HCT-116 was > 100 µM (inactive) throughout. The GI50 in the test with HL-60, in the test with NCI-H460, with RPMI-8226, in the test on SK-MEL-2 and in the test on KM12 was > 100 µM (inactive) in each case.

As for `C/C(=C/C(=O)Nc1ccccc1)Nc1onc(C)c1C`, the GI50 in the test with Malme-3M, in the test with SF-268, in the test on SF-295, in the test with NCI-H23, in the test with UACC-62 and in the test with DMS-114 was > 100 µM (inactive) throughout. For the same compound, the GI50 in the test on UACC-257, with HCC 2998, with SF-539, in the test with HOP-62, with HCT-116 and with HL-60 was > 100 µM (inactive) in each case. For the same compound, the GI50 with OVCAR-4, with NCI-H460, in the test on RPMI-8226, in the test with SK-MEL-2 and in the test on KM12 was > 100 µM (inactive) throughout.

In the case of `CCOC(=O)C1(C#N)C(c2ccccc2)CC(O)(c2ccc([N+](=O)[O-])cc2)C(C(=O)c2ccc([N+](=O)[O-])cc2)C1c1ccccc1` (configuration not stated), the GI50 was > 100 µM (inactive) in the test with Malme-3M; > 100 µM (inactive) with SF-268; > 100 µM (inactive) in the test on SF-295; 42.2 µM (inactive) with NCI-H23; > 100 µM (inactive) with UACC-62; > 100 µM (inactive) with DMS-114. The GI50 in the test with UACC-257, in the test with HCC 2998, in the test on ACHN, in the test with HOP-62, in the test on HCT-116 and in the test with HL-60 was > 100 µM (inactive) each time. The GI50 in the test with OVCAR-4, with NCI-H460, with RPMI-8226, with SK-MEL-2 and with KM12 was > 100 µM (inactive) in each case.

`Cc1cc(NS(=O)(=O)c2ccc(NC(=O)COC(=O)c3cccc4c(=O)c5ccccc5[nH]c34)cc2)no1`: the GI50 in the test on Malme-3M, with SF-268, in the test on SF-295, in the test on NCI-H23, with UACC-62 and with DMS-114 was > 100 µM (inactive) each time. Moreover, the GI50 in the test with UACC-257, in the test with HCC 2998, with SF-539, with ACHN, with HOP-62 and in the test on HCT-116 was > 100 µM (inactive) in each case. For the same compound, the GI50 with HL-60, with OVCAR-4, with NCI-H460, in the test on RPMI-8226 and in the test with KM12 was > 100 µM (inactive) each time.

Turning to `COC(=O)C(CC(C)C)NC(=O)NC12CC3CC(CC(F)(C3)C1)C2` (configuration not stated), the GI50 is > 100 µM (inactive) in the test with Malme-3M; > 100 µM (inactive) with NCI-H23; > 100 µM (inactive) in the test on UACC-62; > 100 µM (inactive) with DMS-114; > 100 µM (inactive) in the test with UACC-257; 29.3 µM (inactive) in the test on HCC 2998. Also, the GI50 in the test on SF-539, in the test on ACHN, in the test with HOP-62, with HCT-116, in the test on HL-60 and in the test with NCI-H460 was > 100 µM (inactive) throughout. For the same compound, the GI50 in the test on RPMI-8226, in the test on SK-MEL-2 and in the test with KM12 was > 100 µM (inactive) in each case.

For the compound `Cc1c(C)c2cc3c(=O)c(CCl)coc3c(C)c2oc1=O`, the GI50 in the test on Malme-3M, in the test with SF-268, in the test on SF-295, with NCI-H23, in the test with UACC-62 and in the test with DMS-114 was > 100 µM (inactive) each time. Further, the GI50 with UACC-257, with HCC 2998, in the test with SF-539, with ACHN, with HOP-62 and in the test with HCT-116 was > 100 µM (inactive) each time. Besides, the GI50 was > 100 µM (inactive) with HL-60; > 100 µM (inactive) in the test with NCI-H460; 75 µM (inactive) in the test with RPMI-8226; > 100 µM (inactive) in the test with SK-MEL-2; > 100 µM (inactive) in the test with KM12.

For the compound `O=C1NC2OC(C(O)CO)C(O)C2O1` (configuration not stated), the GI50 in the test with Malme-3M, in the test with SF-268, in the test on SF-295, in the test on NCI-H23, with UACC-62 and in the test with DMS-114 was > 100 µM (inactive) throughout. The GI50 in the test on UACC-257, in the test with HCC 2998, in the test with ACHN, with HCT-116, with HL-60 and with OVCAR-4 was > 100 µM (inactive) in each case. Further, the GI50 in the test on NCI-H460, with SK-MEL-2 and in the test with KM12 was > 100 µM (inactive) in each case.

`CCOC(=O)CC1=CSC2=NCCN12`: the GI50 with Malme-3M, in the test with SF-268, in the test on SF-295, in the test on NCI-H23, in the test with UACC-62 and in the test with DMS-114 was > 100 µM (inactive) each time. In addition, the GI50 in the test with UACC-257, in the test with HCC 2998, in the test with SF-539, with ACHN, in the test with HOP-62 and with HCT-116 was > 100 µM (inactive) throughout. Besides, the GI50 with HL-60, with OVCAR-4, with NCI-H460, in the test with SK-MEL-2 and in the test on KM12 was > 100 µM (inactive) throughout.

For the compound `COc1cccc(N[C@@H]2c3cc4c(cc3C(c3cc(OC)c(O)c(OC)c3)[C@H]3C(=O)OCC32)OCO4)c1` (some centres not stated), the GI50 with Malme-3M was 1.79 µM (inactive); in the test with SF-268 it was 0.681 µM (active); in the test with SF-295, 0.186 µM (active); with NCI-H23, 0.587 µM (active); with UACC-62, 0.24 µM (active); with DMS-114 it was 0.578 µM (active). Besides, the GI50 with UACC-257 was 0.44 µM (active); in the test with HCC 2998, 1.36 µM (inactive); in the test with SF-539, 0.369 µM (active); in the test on HOP-62 it was 0.191 µM (active); with HCT-116 it was 0.693 µM (active); with HL-60 it was 0.0499 µM (active). Also, the GI50 in the test with OVCAR-4 is 7.55 µM (inactive); in the test with NCI-H460 it was < 0.01 µM (active); with RPMI-8226 it was 0.186 µM (active); in the test with SK-MEL-2, 3.76 µM (inactive); in the test on KM12, 1.65 µM (inactive).
